Experimental data: the NIST ThermoML archive (doi:10.1021/je060271a)
“And” between values parts separate entries of the source, which are not always exact repeats. Equal entries are not always repeated.

Conditions: 343.15 K, Liquid, Vibrating tube method

CCCCCCC(=O)OCC(COC(=O)CCCCCC)(COC(=O)CCCCCC)COC(=O)CCCCCC [pentaerythritol tetraheptanoate]
Conditions	mass density
23684 kPa	957.2 kg/m3
23715 kPa	957.3 kg/m3
23750 kPa	957.4 kg/m3
23753 kPa	957.2 kg/m3
23785 kPa	957.4 kg/m3
23818 kPa	957.3 kg/m3
23850 kPa	957.4 kg/m3
23889 kPa	957.4 kg/m3
23920 kPa	957.3 kg/m3
23952 kPa	957.4 kg/m3
23991 kPa	957.4 kg/m3
24024 kPa	957.5 kg/m3
24056 kPa	957.6 kg/m3
24094 kPa	957.5 kg/m3
24127 kPa	957.6 kg/m3
24128 kPa	957.6 kg/m3
24160 kPa	957.5 kg/m3
24199 kPa	957.7 kg/m3
24200 kPa	957.5 kg/m3
24232 kPa	957.6 kg/m3
24233 kPa	957.6 kg/m3
24265 kPa	957.6 kg/m3
24266 kPa	957.8 kg/m3
24299 kPa	957.6 kg/m3
24306 kPa	957.6 kg/m3
24334 kPa	957.8 kg/m3
24339 kPa	957.7 kg/m3
24372 kPa	957.7 kg/m3
24373 kPa	957.8 kg/m3
24407 kPa	957.7 kg/m3
24411 kPa	957.8 kg/m3
24440 kPa	957.7 kg/m3
24445 kPa	957.8 kg/m3
24478 kPa	957.8 kg/m3
24480 kPa	957.8 kg/m3
24513 kPa	957.8 kg/m3
24519 kPa	957.7 kg/m3
24552 kPa	957.7 kg/m3
24554 kPa	957.8 kg/m3
24586 kPa	957.9 kg/m3
24621 kPa	958 kg/m3
24626 kPa	957.9 kg/m3
24661 kPa	957.9 kg/m3
24696 kPa	957.9 kg/m3
24737 kPa	957.9 kg/m3
24771 kPa	957.9 kg/m3
24806 kPa	957.9 kg/m3
24840 kPa	958 kg/m3
24882 kPa	958 kg/m3
24916 kPa	958.1 kg/m3
24917 kPa	958.1 kg/m3
24952 kPa	958.1 kg/m3 and 958.2 kg/m3
24988 kPa	958.2 kg/m3
24993 kPa	958.1 kg/m3
25028 kPa	958.2 kg/m3
25070 kPa	958.2 kg/m3
25105 kPa	958.1 kg/m3
25141 kPa	958.2 kg/m3
25148 kPa	958.1 kg/m3
25184 kPa	958.3 kg/m3
25220 kPa	958.2 kg/m3
25250 kPa	958.4 kg/m3
25256 kPa	958.1 kg/m3
25279 kPa	958.4 kg/m3
25292 kPa	958.2 kg/m3
25308 kPa	958.3 kg/m3
25336 kPa	958.4 kg/m3
25343 kPa	958.5 kg/m3
25372 kPa	958.2 kg/m3 and 958.5 kg/m3
25402 kPa	958.5 kg/m3
25415 kPa	958.3 kg/m3
25452 kPa	958.3 kg/m3
25488 kPa	958.3 kg/m3
25525 kPa	958.4 kg/m3
25530 kPa	958.5 kg/m3
25560 kPa	958.5 kg/m3
25570 kPa	958.4 kg/m3
25590 kPa	958.5 kg/m3
25607 kPa	958.6 kg/m3
25626 kPa	958.5 kg/m3
25645 kPa	958.4 kg/m3
25656 kPa	958.6 kg/m3
25687 kPa	958.6 kg/m3
25692 kPa	958.5 kg/m3
25723 kPa	958.6 kg/m3
25730 kPa	958.5 kg/m3
25752 kPa	958.6 kg/m3
25767 kPa	958.6 kg/m3
25788 kPa	958.7 kg/m3
25805 kPa	958.7 kg/m3
25819 kPa	958.6 kg/m3
25843 kPa	958.6 kg/m3
25849 kPa	958.6 kg/m3
25885 kPa	958.7 kg/m3
25888 kPa	958.5 kg/m3
25915 kPa	958.7 kg/m3
25927 kPa	958.6 kg/m3
25946 kPa	958.8 kg/m3
25966 kPa	958.7 kg/m3
25983 kPa	958.8 kg/m3
26012 kPa	958.8 kg/m3
26014 kPa	958.9 kg/m3
26045 kPa	958.9 kg/m3
26050 kPa	958.8 kg/m3
26082 kPa	958.8 kg/m3
26090 kPa	958.7 kg/m3
26114 kPa	958.9 kg/m3
26136 kPa	958.8 kg/m3
26145 kPa	958.8 kg/m3
26176 kPa	958.9 kg/m3 and 958.8 kg/m3
26214 kPa	958.9 kg/m3
26217 kPa	958.9 kg/m3
26244 kPa	959 kg/m3
26256 kPa	958.9 kg/m3
26282 kPa	958.9 kg/m3
26296 kPa	959 kg/m3
26313 kPa	959 kg/m3
26343 kPa	958.9 kg/m3
26345 kPa	959 kg/m3
26383 kPa	959 kg/m3 and 959.1 kg/m3
26414 kPa	958.9 kg/m3
26430 kPa	959 kg/m3
26447 kPa	959 kg/m3
26470 kPa	959 kg/m3
26485 kPa	959.1 kg/m3
26510 kPa	959 kg/m3
26518 kPa	959.2 kg/m3
26549 kPa	959.1 kg/m3
26550 kPa	959.2 kg/m3
26583 kPa	959.2 kg/m3
26597 kPa	959.3 kg/m3
26622 kPa	959.1 kg/m3
26638 kPa	959.2 kg/m3
26654 kPa	959.2 kg/m3
26679 kPa	959.1 kg/m3
26693 kPa	959.1 kg/m3
26725 kPa	959.3 kg/m3
26729 kPa	959.2 kg/m3
26758 kPa	959.2 kg/m3
26771 kPa	959.3 kg/m3
26791 kPa	959.3 kg/m3
26812 kPa	959.3 kg/m3
26831 kPa	959.4 kg/m3
26863 kPa	959.2 kg/m3
26864 kPa	959.3 kg/m3
26898 kPa	959.4 kg/m3
26905 kPa	959.3 kg/m3
26939 kPa	959.3 kg/m3
26949 kPa	959.3 kg/m3
26999 kPa	959.3 kg/m3
27006 kPa	959.3 kg/m3
27037 kPa	959.4 kg/m3
27071 kPa	959.4 kg/m3
27081 kPa	959.5 kg/m3
27111 kPa	959.5 kg/m3
27114 kPa	959.5 kg/m3
27145 kPa	959.5 kg/m3
27148 kPa	959.5 kg/m3
27186 kPa	959.5 kg/m3
27189 kPa	959.6 kg/m3
27221 kPa	959.5 kg/m3
27224 kPa	959.6 kg/m3
27256 kPa	959.5 kg/m3
27258 kPa	959.6 kg/m3
27290 kPa	959.6 kg/m3
27300 kPa	959.5 kg/m3
27332 kPa	959.6 kg/m3
27335 kPa	959.7 kg/m3
27367 kPa	959.7 kg/m3
27371 kPa	959.6 kg/m3
27402 kPa	959.6 kg/m3
27408 kPa	959.7 kg/m3
27444 kPa	959.6 kg/m3
27447 kPa	959.7 kg/m3
27479 kPa	959.7 kg/m3
27514 kPa	959.7 kg/m3
27556 kPa	959.7 kg/m3
27590 kPa	959.8 kg/m3
27592 kPa	959.8 kg/m3
27618 kPa	959.8 kg/m3
27627 kPa	959.8 kg/m3
27670 kPa	959.9 kg/m3
27698 kPa	959.7 kg/m3
27742 kPa	959.8 kg/m3
27786 kPa	959.9 kg/m3
27822 kPa	959.8 kg/m3
27858 kPa	959.9 kg/m3
27877 kPa	959.9 kg/m3
27902 kPa	960.1 kg/m3
27910 kPa	960 kg/m3
27939 kPa	960 kg/m3
27975 kPa	959.9 kg/m3
28012 kPa	959.9 kg/m3
28056 kPa	960 kg/m3
28087 kPa	960.2 kg/m3
28093 kPa	960 kg/m3
28116 kPa	960.2 kg/m3
28137 kPa	960.1 kg/m3
28144 kPa	960.1 kg/m3
28175 kPa	960.1 kg/m3
28178 kPa	960.2 kg/m3
28207 kPa	960.1 kg/m3
28213 kPa	960.2 kg/m3
28236 kPa	960.1 kg/m3
28251 kPa	960.2 kg/m3
28269 kPa	960.2 kg/m3
28288 kPa	960.2 kg/m3
28298 kPa	960.3 kg/m3
28327 kPa	960.2 kg/m3
28333 kPa	960.2 kg/m3
28361 kPa	960.4 kg/m3
28370 kPa	960.2 kg/m3
28389 kPa	960.3 kg/m3
28416 kPa	960.3 kg/m3
28418 kPa	960.3 kg/m3
28453 kPa	960.3 kg/m3
28454 kPa	960.3 kg/m3
28476 kPa	960.5 kg/m3
28492 kPa	960.3 kg/m3
28511 kPa	960.3 kg/m3
28538 kPa	960.4 kg/m3
28540 kPa	960.4 kg/m3
28576 kPa	960.4 kg/m3
28605 kPa	960.4 kg/m3
